Reference: patent US8962842B2, “2-pyridone antimicrobial compositions” (priority 2010, dated 2015)
Where two headings read alike, the source gives them in different places.

Key:
[1] = tested on: Acinetobacter baumannii, quinolone-resistant strains (Quotient Bioresearch catalogue); experiment: MIC against pathogens resistant against quinolones (Table 5); format: cell-based
[2] = tested on: Bacterial strains injected into thigh muscles; format: in vivo, mice
[3] = tested on: Acinetobacter baumannii (12 strains); experiment: MIC range, broader panel of Quotient Bioresearch strains (Table 4); format: cell-based
[4] = tested on: Streptococcus pneumonia (5 strains); experiment: MIC range, broader panel of Quotient Bioresearch strains (Table 3); conditions: Streptococcus pneumoniae
[5] = tested on: Haemophilus influenza (5 strains); experiment: MIC range, broader panel of Quotient Bioresearch strains (Table 4); format: cell-based, Haemophilus influenzae
[6] = tested on: Pseudomonas aeruginosa (12 strains); experiment: as above; format: cell-based
physchem = format: physicochemical; conditions: thermodynamic from solid
Description: The solutions were incubated at room temperature for 24 hours before quantification by HPLC detection. Aqueous solubility was evaluated in simulated gastric fluid (SGF), simulated intestinal fluid (SIF) and phosphate buffer saline (PBS) pH 7.4. Aqueous solubility is expressed in Table 11 as mean solubility in μM.

[7] = tested on: Burkholderia cepacia (5 strains); experiment: MIC range, broader panel of Quotient Bioresearch strains (Table 4); format: cell-based
[8] = Metabolic stability in liver microsomes +/- S9 fraction (Table 8); format: in vitro ADME; conditions: 1 μM
Description: Metabolic stability of a select number of examples was tested in liver microsomes+/−addition of S9 fraction as described by Kuhnz, W. and Gieschen, H. (1998), Drug Metab. Dispos., 1120-1127. Test concentration was 1 μM and HPLC/MS-MS was used for detection.

[9] = tested on: Streptococcus pyogenes (4 strains); experiment: MIC range, broader panel of Quotient Bioresearch strains (Table 3)
[10] = tested on: Staphylococcus aureus (16 strains); experiment: as above
[11] = tested on: Escherichia coli (6 strains); experiment: MIC range, broader panel of Quotient Bioresearch strains (Table 4); format: cell-based
[12] = tested on: Enterococcus faecium (3 strains); experiment: MIC range, broader panel of Quotient Bioresearch strains (Table 3)
[13] = tested on: Enterococcus faecalis (5 strains); experiment: as above
[14] = tested on: Group C Streptococcus (4 strains); experiment: as above
[15] = tested on: Klebsiella pneumonia (4 strains); experiment: MIC range, broader panel of Quotient Bioresearch strains (Table 4); format: cell-based; conditions: Klebsiella pneumoniae

Compound: Cc1c(-c2ccc(O)cc2)ccn2c(=O)c(C(=O)[O-])cc(C3CC3)c12.[K+] [Example 46 K salt, potassium 1-cyclopropyl-8-(4-hydroxy-phenyl)-9-methyl-4-oxo-4H-quinolizine-3-carboxylate]
- MIC ([1]; Acinetobacter baumannii, GN54): 2 µg/mL
- Log reduction (LgR) from vehicle control (CFU/g) ([2]; E. coli ATCC 25922, mouse thigh, 30 mg/kg TDS p.o.): 0.37
- Log reduction (LgR) from vehicle control (CFU/g) ([2]; MRSA ATCC 43300, mouse thigh, 30 mg/kg TDS p.o.): 3.76
- MIC ([3]; read-out: MIC Range High, Acinetobacter baumannii (12 strains)): 16 µg/mL
- MIC ([3]; read-out: MIC Range Low, Acinetobacter baumannii (12 strains)): 0.03 µg/mL
- MIC50 ([3]; read-out: MIC Range Median, Acinetobacter baumannii (12 strains)): 4 µg/mL
- MIC ([4]; read-out: MIC Range Low, Streptococcus pneumonia (5 strains)): 0.06 µg/mL
- MIC50 ([4]; read-out: MIC Range Median, Streptococcus pneumonia (5 strains)): 0.06 µg/mL
- MIC50 ([5]; 16 h, Median of the strain panel): ≤ 0.015 µg/mL
- MIC ([5]; High of the strain panel, read-out: MIC Range High, Haemophilus influenza (5 strains)): ≤ 0.015 µg/mL
- MIC ([5]; Low of the strain panel, read-out: MIC Range Low, Haemophilus influenza (5 strains)): ≤ 0.015 µg/mL
- MIC ([6]; read-out: MIC Range High, Pseudomonas aeruginosa (12 strains)): > 32 µg/mL
- MIC ([6]; read-out: MIC Range Low, Pseudomonas aeruginosa (12 strains)): 0.25 µg/mL
- MIC50 ([6]; read-out: MIC Range Median, Pseudomonas aeruginosa (12 strains)): 4 µg/mL
- solubility at 24 h (physchem; fassgf or other biorelevant): 153 µM
- solubility at 24 h (physchem; pH 7.4, aqueous buffer): 44 µM
- solubility at 24 h (physchem; simulated gastric fluid): 7 µM
- MIC ([7]; read-out: MIC Range High, Burkholderia cepacia (5 strains)): 0.12 µg/mL
- MIC ([7]; read-out: MIC Range Low, Burkholderia cepacia (5 strains)): 0.06 µg/mL
- MIC50 ([7]; read-out: MIC Range Median, Burkholderia cepacia (5 strains)): 0.12 µg/mL
- Mean Parent Remaining ([8]; Liver microsomes + S9, human): 97%
- Mean Parent Remaining ([8]; Liver microsomes + S9, mouse): 92%
- Mean Parent Remaining ([8]; Liver microsomes, human): 86%
- Mean Parent Remaining ([8]; Liver microsomes, mouse): 81%
- MIC ([9]; read-out: MIC Range High, Streptococcus pyogenes (4 strains)): 0.12 µg/mL
- MIC ([9]; read-out: MIC Range Low, Streptococcus pyogenes (4 strains)): 0.03 µg/mL
- MIC50 ([9]; read-out: MIC Range Median, Streptococcus pyogenes (4 strains)): 0.06 µg/mL
- MIC ([10]; read-out: MIC Range High, Staphylococcus aureus (16 strains)): 0.12 µg/mL
- MIC ([10]; read-out: MIC Range Low, Staphylococcus aureus (16 strains)): ≤ 0.015 µg/mL
- MIC50 ([10]; read-out: MIC Range Median, Staphylococcus aureus (16 strains)): 0.06 µg/mL
- MIC ([11]; read-out: MIC Range High, Escherichia coli (6 strains)): 32 µg/mL
- MIC ([11]; read-out: MIC Range Low, Escherichia coli (6 strains)): ≤ 0.015 µg/mL
- MIC50 ([11]; read-out: MIC Range Median, Escherichia coli (6 strains)): 12 µg/mL
- MIC ([12]; read-out: MIC Range Low, Enterococcus faecium (3 strains)): 0.12 µg/mL
- MIC50 ([12]; read-out: MIC Range Median, Enterococcus faecium (3 strains)): 0.5 µg/mL
- MIC ([13]; read-out: MIC Range Low, Enterococcus faecalis (5 strains)): ≤ 0.015 µg/mL
- MIC50 ([13]; read-out: MIC Range Median, Enterococcus faecalis (5 strains)): 0.03 µg/mL
- MIC ([14]; read-out: MIC Range High, Group C Streptococcus (4 strains)): 0.06 µg/mL
- MIC ([14]; read-out: MIC Range Low, Group C Streptococcus (4 strains)): 0.03 µg/mL
- MIC50 ([14]; read-out: MIC Range Median, Group C Streptococcus (4 strains)): 0.045 µg/mL
- MIC ([15]; read-out: MIC Range High, Klebsiella pneumonia (4 strains)): > 32 µg/mL
- MIC ([15]; read-out: MIC Range Low, Klebsiella pneumonia (4 strains)): 0.06 µg/mL
- MIC50 ([15]; read-out: MIC Range Median, Klebsiella pneumonia (4 strains)): 18 µg/mL

Compound: C[C@H]1COc2c(N3CCN(C)CC3)c(F)cc3c(=O)c(C(=O)O)cn1c23 [Levofloxacin, reference compound]
- MIC ([1]; strain GN54, Acinetobacter baumannii levofloxacin-resistant clinical isolate, read-out: MIC): ≥ 16 µg/mL

Compound: CN[C@H](CC(C)C)C(=O)N[C@H]1C(=O)N[C@@H](CC(N)=O)C(=O)N[C@H]2C(=O)N[C@H]3C(=O)N[C@H](C(=O)N[C@H](C(=O)O)c4cc(O)cc(O)c4-c4cc3ccc4O)[C@H](O)c3ccc(c(Cl)c3)Oc3cc2cc(c3O[C@@H]2O[C@H](CO)[C@@H](O)[C@H](O)[C@H]2O[C@H]2C[C@](C)(N)[C@H](O)[C@H](C)O2)Oc2ccc(cc2Cl)[C@H]1O [vancomycin]
- Log reduction (LgR) from vehicle control (CFU/g) ([2]; MRSA ATCC 43300, mouse thigh, 25 mg/kg i.v. once): 2.71
